Assay results from patent publication US6809233B2, “DNA sequences for an amino acid transporter plasmids, bacteria, yeasts and plants containing a transporter and their use” (Hoechst Schering AgrEvo GmbH, priority 1992, dated 2004).

Target: T1, amino acid transporter (PPP1-20, SEQ ID No. 1) in 22574d::PPP1-20 yeast strain (Arabidopsis thaliana, UniProt Q42400)
T1 construct: expressed in transfected cells; host or cells: Saccharomyces cerevisiae strain 22574d transformed with pFL61-ppp1-20
T1 sequence (Q42400 1-485): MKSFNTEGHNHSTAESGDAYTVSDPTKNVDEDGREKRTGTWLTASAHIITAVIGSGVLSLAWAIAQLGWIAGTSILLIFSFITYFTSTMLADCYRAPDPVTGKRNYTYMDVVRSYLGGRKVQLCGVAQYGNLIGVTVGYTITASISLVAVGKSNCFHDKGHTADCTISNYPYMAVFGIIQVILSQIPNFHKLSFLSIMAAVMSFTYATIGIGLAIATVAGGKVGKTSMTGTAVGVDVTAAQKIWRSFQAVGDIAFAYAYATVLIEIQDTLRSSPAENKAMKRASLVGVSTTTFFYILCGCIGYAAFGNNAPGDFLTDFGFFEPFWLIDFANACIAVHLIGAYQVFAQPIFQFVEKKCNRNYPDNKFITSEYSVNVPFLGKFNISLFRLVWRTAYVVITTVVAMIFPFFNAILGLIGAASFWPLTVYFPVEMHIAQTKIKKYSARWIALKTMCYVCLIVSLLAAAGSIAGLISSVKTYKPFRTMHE
Assay: Competition of 14C-L-proline uptake by excess of amino acids and analogues in 22574d::PPP1-20 yeast strain
Type: cell-based
Protocol: After centrifuging the culture, the cells are washed and taken up in 100 mm tris/HCl pH 4.5, 2 mM MgCl2 and 0.6M sorbitol. Around 100 μL of the suspension was added to a solution of 0.5 mM L-proline plus 1 μCi ^14C labeled L-proline in 100 μL of the same buffer. The uptake of the labeled amino acid was measured by the process described by Cirillo (1989, Meth Enzymol 174: 617-622). The uptake of the labeled amino acid was compared, on the one hand, in co-incubation with protein modifying substance diethyl pyrocarbonate which is an inhibitor of the amino acid transport in membrane vesicles from Beta vulgaris, and, on the other hand, in co-incubation with other protein modifying substances. A competition experiment in which the specificity of the transporter could be read off with various amino acids and analogues is shown in Table II for PPP1-20 and in FIG. 4 for AAP2. An analogous experiment in which a competition for histidine uptake in the line JT16::AAP2 was tested is described in Example 5.

Structure (SMILES): O=C(O)[C@H]1NCC(O)C1O (some centres unmarked) [3,4-di-OH proline]
- % remaining transport activity (1 x excess of competitor): 86%
- % remaining transport activity (10 x excess of competitor): 49%
